# Measured values reported in patent US6589965B2, “Method of treating and preventing migraine headaches” (Pharmacia & Upjohn Company, priority 2001, dated 2003).
# What was measured:
# migraine headache = conditions: cited from earlier work; for efficacy in acute treatment of migraine (in words): literature reports
# D2 dopamine receptor = D2 dopamine receptor (Homo sapiens, UniProt P14416); conditions: cited from earlier work
# migraine = conditions: literature reports; cited from earlier work
# [1] = tested on: quinpirole-induced yawning in rats; assay: antagonism of quinpirole-induced yawning in rats; type: in vivo, Male Sprague Dawley Rats
# Procedure: Yawning is a behavior that has been linked to activation of dopaminergic neurotransmission.
# Male Sprague Dawley Rats were used in this example. The animals were allowed 12 day acclimatization before testing and at the time of the study, their body weights ranged from 280-330 grams. The rats were housed in standard size steel cages with four animals per cage and were maintained on a 12 hour light/dark schedule with the lights being on from 6:00 a.m. to 6:00 p.m. All tests were performed between 8:00 a.m. and 2:00 p.m. Six animals were used per group.
# The animals were then placed individually in a 6″×6″plexiglass observation cages and the number of yawns were counted for the subsequent 30 minutes. The results are shown in FIG. 1 with the data being expressed as the mean total number of yawns per 30 minutes. An analysis of variance was used for statistical calculations and probability levels of <0.05 was regarded as being statistically significant.
# [2] = within 60 minutes of administration, randomized, double-blind clinical trial (Jones et al 1989)
# Chain of D2 dopamine receptor (P14416 whole entry): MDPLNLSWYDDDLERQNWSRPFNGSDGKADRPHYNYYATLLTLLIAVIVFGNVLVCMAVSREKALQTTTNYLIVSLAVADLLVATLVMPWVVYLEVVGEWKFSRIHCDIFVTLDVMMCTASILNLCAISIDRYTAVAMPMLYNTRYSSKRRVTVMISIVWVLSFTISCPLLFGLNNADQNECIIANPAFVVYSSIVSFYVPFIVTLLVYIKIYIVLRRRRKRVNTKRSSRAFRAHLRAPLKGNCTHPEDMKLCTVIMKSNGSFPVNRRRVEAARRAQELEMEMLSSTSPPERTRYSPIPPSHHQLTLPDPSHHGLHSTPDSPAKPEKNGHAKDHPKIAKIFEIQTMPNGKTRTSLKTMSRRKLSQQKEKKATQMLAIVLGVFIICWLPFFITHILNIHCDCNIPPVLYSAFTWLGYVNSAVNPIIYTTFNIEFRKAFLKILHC
compound,measurement,setting,value
CN1CCN(CCCN2c3ccccc3Sc3ccc(Cl)cc32)CC1 [Prochlorperazine],efficacy in acute treatment of migraine (in words),migraine headache,high degree of efficacy
same,additional patients with partial relief,migraine headache; [2],14%
same,patients with complete relief,migraine headache; [2],74%
O=C(CCCN1CCC(O)(c2ccc(Cl)cc2)CC1)c1ccc(F)cc1 [haloperidol],patients with headache completely or substantially relieved,"migraine headache; Fisher, J Emerg Med 1995",six of six
same,time to headache relief after administration,"migraine headache; Fisher, J Emerg Med 1995",25 to 65 min
CCN(CC)CCNC(=O)c1cc(Cl)c(N)cc1OC [Metoclopramide],affinity for the D2 dopamine receptor (in words),D2 dopamine receptor,relatively low affinity
same,preventive / prophylactic effect on migraine (in words),migraine,beneficial effect
"CCCN1CCC[C@@H](c2cccc(S(C)(=O)=O)c2)C1 [Cmpd 1, S-(−)-3-[3-(methylsulfonyl)phenyl]-1-propyl-piperidine]",antagonism of the yawning behavior induced by quinpirole,[1]; 10 or 30 mg/kg injected 15 minutes before quinpirole 0.1 mg/kg,dose-dependent and complete antagonism
same,induction of yawning behavior by compound given alone,[1]; given alone at a dose of 30 mg/kg,failed to induce yawning behavior
CN(C)CCCN1c2ccccc2Sc2ccc(Cl)cc21 [Chlorpromazine],efficacy in acute treatment of migraine (in words),migraine headache,highly effective
same,common side effect,migraine headache; migraine patients in an emergency department (Lane et al 1985),moderate drowsiness
Fc1ccc(C(c2ccc(F)cc2)N2CCN(C/C=C/c3ccccc3)CC2)cc1 [Flunarizine],efficacy in acute treatment of migraine (in words),migraine headache,high degree of relief
same,affinity for the D2 dopamine receptor (in words),D2 dopamine receptor,moderate degree of affinity
O=c1[nH]c2ccccc2n1CCCN1CCC(n2c(=O)[nH]c3cc(Cl)ccc32)CC1 [Domperidone],preventive / prophylactic effect on migraine (in words),migraine,prevent the occurrence of a migraine
